Broadly, the IC50 is the concentration needed to halve the response being measured.

Read-outs that look alike come from different tables or passages of the source.

Data on 36 compounds can be found in patent US7915405B2, “2,4-disubstituted-5-aminocarbonyl-1,3-thiazole derivatives for therapeutic agent of antiinflammatory disease, method thereof for preparation, therapeutic agent for antiinflammatory disease induced by SPC activity containing the same” (Korea Research Institute of Chemical Technology, priority 2008, dated 2011).

The subject of test [1] is TPA-induced inflammation model. As to the kind of experiment: Control of inflammatory reaction in mouse TPA-induced inflammation model (ear weight and MPO activity). The class given is in vivo. The note with it: ICR mice; for Inhibition (%) of inflammatory reaction (ear edema, ear weight) / Inhibition (%) (MPO inhibition): 0.3% in acetone, 20 μl on the ear at 1 hour and 6 hours after TPA; for Inhibition (%) of inflammatory reaction (ear edema, ear weight): measured at 24 hours; for inhibition of TPA-induced inflammatory reactions, ear edema and MPO activity (in words): 0.3% topical, compared with hydrocortisone; for Inhibition (%) (MPO inhibition): value in brackets, MPO activity of ear at 24 hours. How it is done:
In order to examine an inhibitory effect on inflammatory reactions, the following test was carried out using tetradecanoyl phorbol acetate (hereinafter referred to as “TPA”)-induced inflammation model.
The TPA-induced inflammation model was a test method which has been widely used to test inflammatory reaction mechanisms and the effect of inhibitory substances [De Young L M et al., Agents and Actions, 1989, 26, 335-341]. When TPA which is a substance causing an inflammatory reaction is applied to the ear of a test subject, erythema and edema occur. Such inflammatory reactions are measurable through the increase in the activity of myeloperoxidase (MPO) which is essential for bacterial invasion into white blood cells.
Forty 6-week-old ICR mice were prepared, and 20 μl of a TPA solution (Sigma Aldrich Korea) obtained by dissolving TPA in acetone at a concentration of 125 μg/ml was applied to the left ear of each animal. At 1 hour after the application of TPA, 20 μl of each of acetone, the compounds of Examples dissolved in acetone at a concentration of 0.3%, and hydrocortisone (Sigma Aldrich Korea) dissolved in acetone at a concentration of 0.3% was applied to the TPA-applied site, and at 6 hours after the application of TPA, it was applied again to the same site in the same amount (20 μl). At 24 hours after the application of TPA, the mice were sacrificed by cervical dislocation, and the left ear was collected in a given width and measured for weight and MPO activity. Inhibition % of inflammatory reactions was calculated according to the following equation 3, and the results are shown in Table 4 below. Inhibition %=(group treated with TPA alone−group treated with test drug)/(group treated with TPA alone−group not treated with TPA)×100 [Equation 3]

For test [2], the system named is NIH 3T3 cells. The test is described as follows: Control of cellular division and proliferation induced by SPC ([3H]-thimidine incorporation). The class given is cell-based. To be noted: for IC50: compound 0.001-1 μM 30 minutes, then SPC 7 μM, 24 hours, read-out: antagonistic effect on SPC IC50; for inhibition of cellular division and proliferation induced by SPC (in words): SPC 7 μM. How it is done: Treatment of cells with sphingosylphosphorylcholine (SPC) can induce excessive cellular division and proliferation, thus causing pathological skin conditions [Desai, Biochem. Biophys. […] Accordingly, the compounds prepared in the above Examples were tested for an effect on cellular division and proliferation induced by SPC.
First, 1×10^5 (usually 1×10^4˜10^5) NIH 3T3 cells (American Type Culture Collection, Manassas, Va., USA) were dispensed and cultured on a culture plate, and then cultured in RPMI medium containing no fetal bovine serum for 24 hours to achieve serum starvation. The cells were treated with the compounds prepared in the above Examples, and FTY720, a sphingosine-1-phosphate (S1P) agonist, at concentrations of 0.001 μM, 0.01 μM, 0.1 μM and 1 μM, and were incubated for 30 minutes. Then, SPC (Biomol, Plymouth Meeting, Pa., USA) was added thereto at a concentration of 7 μM, and the cells were incubated at 37° C. for 24 hours. […] Proliferation %=(group treated with test drug−group not treated with SPC)/(group treated with SPC alone−group not treated with SPC)×100 [Equation 1]

Setting [3] is: Mus musculus, NIH3T3, serum starved.

As for `CC(C)(C)C(=O)Nc1nc(N2CCCCC2)sc1C(=O)N1CCOCC1` [Example 1-1], the “Inhibition (%) of inflammatory reaction (ear edema, ear weight)” value (shortened to “Inhibition (%) of inflammatory reaction”) in test [1] is listed as 21%. In test [2] (setting [3]), the concentration for half-maximal inhibition (IC50) was found to be 932 nM.

Regarding `CC(C)(C)C(=O)Nc1nc(N2CCN(c3ccccc3)CC2)sc1C(=O)N1CCOCC1` [Example 1-5], the “Inhibition (%) of inflammatory reaction” value in test [1] was found to be 30%. Besides, in test [2] (serum starved), the IC50 came to 189 nM.

Take `COc1ccccc1N1CCN(c2nc(NC(=O)C(C)(C)C)c(C(=O)N3CCOCC3)s2)CC1` [Example 1-7]: the IC50 in test [2] (serum starved) was found to be 271 nM.

For `CC(C)(C)C(=O)Nc1nc(N2CCN(c3ccc(Cl)cc3)CC2)sc1C(=O)N1CCOCC1` [Example 1-8], in test [2] (serum starved), the IC50 was 730 nM.

Turning to `CC(C)(C)C(=O)Nc1nc(NCc2ccccc2)sc1C(=O)N1CCOCC1` [Example 1-10], in test [1], the “Inhibition (%) of inflammatory reaction” value is listed as 68%. Also, the IC50 in test [2] (serum starved) worked out at 68 nM.

For `COc1ccc(CNc2nc(NC(=O)C(C)(C)C)c(C(=O)N3CCOCC3)s2)cc1` [Example 1-11], the “Inhibition (%) of inflammatory reaction” value in test [1] was determined as 49%. The IC50 in test [2] (serum starved) is 93.7 nM.

`CC(C)(C)C(=O)Nc1nc(NCCN2CCCCC2)sc1C(=O)N1CCOCC1` [Example 1-12, N-{5-(morpholine-4-carbonyl)-2-[2-(piperidin-1-yl)ethylamino]thiazol-4-yl}pivalamide]: in test [1], the “Inhibition (%) of inflammatory reaction” value turned out to be 86%; the “inhibition of TPA-induced inflammatory reactions, ear edema and MPO activity (in words)” value was “significantly inhibited”; the “Inhibition (%) (MPO inhibition)” value was 80%. Also, in test [2] (setting [3]), the half-inhibitory concentration (IC50) came out at 5.81 nM. In test [2], the “inhibition of cellular division and proliferation induced by SPC (in words)” value (“inhibition … by SPC (in words)” for short) is listed as “dose-dependently inhibited”.

On to `CC(C)(C)C(=O)Nc1nc(NCCN2CCCC2)sc1C(=O)N1CCOCC1` [Example 1-13], for which the IC50 in test [2] (serum starved) was determined as 12.7 nM.

As for `CC(C)(C)C(=O)Nc1nc(N2CCC(N3CCOCC3)CC2)sc1C(=O)N1CCOCC1` [Example 1-14], the “Inhibition (%) of inflammatory reaction” value in test [1] came out at 71%. Moreover, the IC50 in test [2] (serum starved) worked out at 9.3 nM.

For `CC(C)(C)C(=O)Nc1nc(N2CCC(N3CCCC3)CC2)sc1C(=O)N1CCOCC1` [Example 1-15], in test [2] (serum starved), the IC50 was determined as 20.7 nM.

Take `CC(C)(C)C(=O)Nc1nc(N2CCC(N3CCCCC3)CC2)sc1C(=O)N1CCOCC1` [Example 1-16]: the IC50 in test [2] (serum starved) worked out at 103 nM.

As to `CCCCC(=O)Nc1nc(NCc2ccccc2)sc1C(=O)N1CCOCC1` [Example 1-19], the IC50 in test [2] (serum starved) came to 79 nM.

Consider `CCCCC(=O)Nc1nc(NCCN2CCCCC2)sc1C(=O)N1CCOCC1` [Example 1-20], for which, in test [1], the “Inhibition (%) of inflammatory reaction” value is given as 62%. Also, the IC50 in test [2] (serum starved) was 7.5 nM.

Regarding `CCCCC(=O)Nc1nc(N2CCC(N3CCOCC3)CC2)sc1C(=O)N1CCOCC1` [Example 1-21], the “Inhibition (%) of inflammatory reaction” value in test [1] turned out to be 52%. In addition, in test [2] (serum starved), the IC50 was 57 nM.

Consider `CCCCC(=O)Nc1nc(N2CCC(N3CCCC3)CC2)sc1C(=O)N1CCOCC1` [Example 1-22], for which, in test [1], the “Inhibition (%) of inflammatory reaction” value turned out to be 53% and the “Inhibition (%) (MPO inhibition)” value was determined as 48%. For the same compound, the IC50 in test [2] (serum starved) was 96 nM.

As for `COc1ccccc1N1CCN(c2nc(NC(C)=O)c(C(=O)N3CCOCC3)s2)CC1` [Example 1-23], in test [2] (serum starved), the IC50 worked out at 850 nM.

For `COc1ccccc1N1CCN(c2nc(NC(=O)C3CCCCC3)c(C(=O)N3CCOCC3)s2)CC1` [Example 1-24], in test [2] (serum starved), the IC50 is 910 nM.

In the case of `COc1ccccc1N1CCN(c2nc(NC(=O)C3CC3)c(C(=O)N3CCOCC3)s2)CC1` [Example 1-25], the half-maximal inhibitory concentration (IC50) in test [2] (serum starved) amounted to 67 nM.

For `CC(C)(C)C(=O)Nc1nc(NCC2CC2)sc1C(=O)N1CCCCC1` [Example 1-27], the IC50 in test [2] (serum starved) is 308 nM.

Regarding `CC(C)(C)C(=O)Nc1nc(NCC2CCCCC2)sc1C(=O)N1CCCCC1` [Example 1-28], the “Inhibition (%) of inflammatory reaction” value in test [1] amounted to 43%. The IC50 in test [2] (serum starved) was 716 nM.

Turning to `CC(C)(C)C(=O)Nc1nc(NCc2ccccc2)sc1C(=O)N1CCCCC1` [Example 1-29, N-[2-(benzylamino)-5-(piperidine-1-carbonyl)thiazol-4-yl]pivalamide], in test [1], the “Inhibition (%) of inflammatory reaction” value amounted to 87%; the “inhibition of TPA-induced inflammatory reactions, ear edema and MPO activity (in words)” value is recorded as “significantly inhibited”; the “Inhibition (%) (MPO inhibition)” value is 83%. In addition, in test [2] (setting [3]), the IC50 was found to be 6.12 nM. For the same compound, the “inhibition … by SPC (in words)” value in test [2] was “dose-dependently inhibited”.

Take `CC(C)(C)C(=O)Nc1nc(NCCN2CCCCC2)sc1C(=O)N1CCCCC1` [Example 1-30]: the “Inhibition (%) of inflammatory reaction” value in test [1] was found to be 59%. For the same compound, in test [2] (serum starved), the IC50 was determined as 878 nM.

Turning to `Cc1ccccc1N1CCN(c2nc(NC(=O)C(C)(C)C)c(C(=O)N3CCCCC3)s2)CC1` [Example 1-32], the “Inhibition (%) of inflammatory reaction” value in test [1] was 43%. The IC50 in test [2] (serum starved) came out at 45 nM.

Regarding `CC(C)(C)C(=O)Nc1nc(N2CCN(c3ccccc3F)CC2)sc1C(=O)N1CCCCC1` [Example 1-33], the “Inhibition (%) of inflammatory reaction” value in test [1] is on record as 47%. For the same compound, the IC50 in test [2] (serum starved) was 10.9 nM.

With `CC(C)(C)C(=O)Nc1nc(N2CCN(c3ccc(F)cc3)CC2)sc1C(=O)N1CCCCC1` [Example 1-34], in test [2] (serum starved), the IC50 was found to be 57 nM.

For the compound `CC(C)(C)C(=O)Nc1nc(N2CCN(c3ccccc3C#N)CC2)sc1C(=O)N1CCCCC1` [Example 1-35], the IC50 in test [2] (serum starved) is 94 nM.

Regarding `CC(C)(C)C(=O)Nc1nc(N2CCN(c3ccccn3)CC2)sc1C(=O)N1CCCCC1` [Example 1-36], the IC50 in test [2] (serum starved) worked out at 540 nM.

In the case of `CC(C)(C)C(=O)Nc1nc(N2CCC(N3CCOCC3)CC2)sc1C(=O)N1CCCCC1` [Example 1-37], in test [1], the “Inhibition (%) of inflammatory reaction” value was 44% and the “Inhibition (%) (MPO inhibition)” value is 47%. Besides, the IC50 in test [2] (serum starved) amounted to 89 nM.

Consider `CC(C)(C)C(=O)Nc1nc(N2CCC(N3CCCCC3)CC2)sc1C(=O)N1CCCCC1` [Example 1-38], for which the IC50 in test [2] (serum starved) came out at 176 nM.

Regarding `CCCCC(=O)Nc1nc(NCc2ccccc2)sc1C(=O)N1CCCCC1` [Example 1-41], the “Inhibition (%) of inflammatory reaction” value in test [1] came out at 51%. For the same compound, the IC50 in test [2] (serum starved) was 9.8 nM.

For the compound `CCCCC(=O)Nc1nc(NCCN2CCCCC2)sc1C(=O)N1CCCCC1` [Example 1-42], the IC50 in test [2] (serum starved) is 102 nM.

For the compound `CCCCC(=O)Nc1nc(N2CCC(N3CCCC3)CC2)sc1C(=O)N1CCCCC1` [Example 1-44], the “Inhibition (%) of inflammatory reaction” value in test [1] was determined as 57%. Moreover, the IC50 in test [2] (serum starved) worked out at 88.3 nM.

For the compound `CC(C)(C)C(=O)Nc1nc(NCc2ccccc2)sc1C(=O)N1CCCC1` [Example 1-45], the IC50 in test [2] (serum starved) turned out to be 970 nM.

Turning to `COc1ccccc1N1CCN(c2nc(NC(=O)C(C)(C)C)c(C(=O)N3CCCC3)s2)CC1` [Example 1-49], the “Inhibition (%) of inflammatory reaction” value in test [1] is recorded as 38%. Besides, the IC50 in test [2] (serum starved) is 178 nM.

`CCCCCCCCc1ccc(CCC(N)(CO)CO)cc1` [FTY720, reference compound]: the “inhibition … by SPC (in words)” value in test [2] was “did not inhibit”.

Take `C[C@]12CCC(=O)C=C1CC[C@@H]1[C@@H]2[C@@H](O)C[C@@]2(C)[C@H]1CC[C@]2(O)C(=O)CO` [Hydrocortisone, hydrocortisone, reference compound]: the “Inhibition (%) of inflammatory reaction” value in test [1] is 85%.
